Literature values as cited in publication PMC10795913 (The Journal of Clinical Endocrinology and Metabolism, 2023).

Tested on: patients
Conditions: different assays, not directly comparable; cited from earlier work

Substance: lixisenatide
- ADA incidence in published studies: up to 71.2%

Substance: albiglutide
- ADA incidence in published studies: 2.5%

Substance: semaglutide
- ADA incidence in published studies: up to 4.3%
